Data: ChEMBL document CHEMBL1287698, “Artemisinin-quinoline hybrid-dimers: synthesis and in vitro antiplasmodial activity” (Bioorg Med Chem Lett, 2010)

Tests used:
Plasmodium falciparum [1] = assay: Antiplasmodial activity against chloroquine-resistant Plasmodium falciparum Dd2; assay type: functional, organism-based
CHO = assay: Cytotoxicity against CHO cells by MTT assay; assay type: cell-based; settings: Cricetulus griseus
[2] = Selectivity index, ratio of IC50 for CHO cells to IC50 of chloroquine-sensitive Plasmodium falciparum D10; assay type: toxicity, cell-based; settings: hamster, read-out: Ratio IC50
Plasmodium falciparum [3] = assay: Antiplasmodial activity against chloroquine-sensitive Plasmodium falciparum D10; assay type: functional, organism-based
Plasmodium falciparum [4] = assay: Resistance index, ratio of IC50 for chloroquine-resistant Plasmodium falciparum Dd2 to IC50 for chloroquine-sensitive Plasmodium falciparum D10; assay type: functional

SMILES | IC50 (Plasmodium falciparum [1]) | IC50 (CHO) | selectivity ratio [2] | IC50 (Plasmodium falciparum [3]) | Ratio IC50 (Plasmodium falciparum [4])
C[C@H]1[C@@H](OCCN(CCNc2ccnc3cc(Cl)ccc23)CCO[C@H]2O[C@@H]3O[C@]4(C)CC[C@H]5[C@H](C)CC[C@@H]([C@H]2C)[C@@]35OO4)O[C@@H]2O[C@]3(C)CC[C@H]4[C@H](C)CC[C@@H]1[C@@]24OO3 | 46.1 nM | 10 nM | 1360 | 7.37 nM | 6
C[C@H]1[C@@H](OCCN(CCCNc2ccnc3cc(Cl)ccc23)CCO[C@H]2O[C@@H]3O[C@]4(C)CC[C@H]5[C@H](C)CC[C@@H]([C@H]2C)[C@@]35OO4)O[C@@H]2O[C@]3(C)CC[C@H]4[C@H](C)CC[C@@H]1[C@@]24OO3 | 28.4 nM | 0.68 nM | 128 | 5.31 nM | 5
C[C@H]1[C@@H](OCCN(CCCCNc2ccnc3cc(Cl)ccc23)CCO[C@H]2O[C@@H]3O[C@]4(C)CC[C@H]5[C@H](C)CC[C@@H]([C@H]2C)[C@@]35OO4)O[C@@H]2O[C@]3(C)CC[C@H]4[C@H](C)CC[C@@H]1[C@@]24OO3 | 205 nM | 5.43 nM | 61 | 89 nM | 2
C[C@H]1[C@@H](O[N+]2(CCO[C@H]3O[C@H]4O[C@]5(C)CC[C@H]6[C@H](C)CC[C@@H]([C@H]3C)[C@@]46OO5)CCN(CCNc3ccnc4cc(Cl)ccc34)CC2)O[C@@H]2O[C@]3(C)CC[C@H]4[C@H](C)CC[C@@H]1[C@@]24OO3.[Br-] | 55.7 nM | 74.8 nM | 3810 | 19.6 nM | 3
C[C@H]1[C@@H](O)O[C@@H]2O[C@@]3(C)CC[C@H]4[C@H](C)CC[C@@H]1[C@@]24OO3 [ARTENIMOL] | 2.09 nM | – | – | 5.11 nM | –
CC[C@H]1CN2CCc3cc(OC)c(OC)cc3[C@@H]2C[C@@H]1C[C@H]1NCCc2cc(OC)c(OC)cc21 [EMETINE] | – | – | – | – | 0.4
